From patent US12678498B2, “FGFR/PD-1 combination therapy for the treatment of cancer” (ASTEX THERAPEUTICS LTD, priority 2015, dated 2026)

How the values were obtained:
[1] = system: peripheral blood mononuclear cells (PBMCs) from normal donors; assay: Immune cell viability of PBMCs by CellTiter-Glo; assay type: cell-based; details: increasing concentrations up to 1 μM, days 1, 2, 5 and 6
Description: To determine the effects of JNJ427564493 on immune cell viability in vitro, peripheral blood mononuclear cells (PBMCs) from normal donors were stimulated with anti-CD3 antibodies to activate T cells, in the presence of increasing concentrations of JNJ42756493. Unstimulated PBMCs were also included to determine if JNJ42756493 affected unactivated immune populations. Cell viability was assessed at four different time points, over 6 days.

[2] = system: PBMCs from CMV-reactive donors stimulated with CMV antigen; assay: Cytomegalovirus antigen assay (CMV), IFN-γ in supernatant by MSD; assay type: cell-based; details: JNJ42756493 alone at 100, 1 or 0.01 nM; 6 days after treatment
Description: FIG. 5 illustrates the effect of JNJ42756493 on IFN-γ levels induced by anti-PD-1 antibodies in a Cytomegalovirus antigen assay (CMV) Assay. Peripheral blood mononuclear cells (PMBCs) were stimulated with CMV antigen and treated with anti-PD-1 antibodies (concentration left to right—30, 10, 3.33, 1.11, 0.37, 0.12 nM) as indicated. JNJ42756493 was added at 100, 1, or 0.01 nM alone (concentrations left to right), together with anti-PD-1 antibodies (100, 1, or 0.01 nM JNJ42756493 together with 30, 10, 3.33, 1.11, 0.37, or 0.12 nM of anti-PD-1 antibody), or in the presence of isotype control (IC). 6 days after treatment, IFN-γ levels in the supernatant were measured by MSD.
In the CMV assay, PBMCs from CMV-reactive donors were stimulated by the addition of CMV antigen. CMV-reactive T cells are active, expand and secrete pro-inflammatory cytokines such as IFN-γ. […] In contrast, JNJ42756493 alone had no impact on cytokine levels (FIG. 5, JNJ-493 alone).

COc1cc(OC)cc(N(CCNC(C)C)c2ccc3ncc(-c4cnn(C)c4)nc3c2)c1 [JNJ42756493, N-(3,5-dimethoxyphenyl)-N′-(1-methylethyl)-N-[3-(1-methyl-1H-pyrazol-4-yl)quinoxalin-6-yl]ethane-1,2-diamine]
cell viability (luminescence signal) ([1]; PBMCs stimulated with anti-CD3 antibodies): remained constant
cell viability (luminescence signal) ([1]; unstimulated PBMCs): remained constant
cytokine (IFN-γ) levels [2]: no impact
